Test results published in patent US20210348204A1, “Systems, Methods, And Compositions For The Production of Water-Soluble Terpenes Derived From Cannabis Plants” (Trait Biosciences, Inc., priority 2018, published 2021).

Assays:
cannabinoid receptor = details: cited from earlier work
onychomycosis = details: comparable to ciclopiroxolamine and sulcanazole; cited from earlier work
platelet aggregation = details: cited from earlier work
acne bacteria = details: cited from earlier work
Dermatophytes = details: cited from earlier work
breast cancer cells = details: cited from earlier work
[1] = in vivo; cited from earlier work
5-HTEA = biological target: T1, 5-HTEA (Mus musculus, UniProt Q64264); details: via 5-HTEA; cited from earlier work
T1 sequence (Q64264 1-421): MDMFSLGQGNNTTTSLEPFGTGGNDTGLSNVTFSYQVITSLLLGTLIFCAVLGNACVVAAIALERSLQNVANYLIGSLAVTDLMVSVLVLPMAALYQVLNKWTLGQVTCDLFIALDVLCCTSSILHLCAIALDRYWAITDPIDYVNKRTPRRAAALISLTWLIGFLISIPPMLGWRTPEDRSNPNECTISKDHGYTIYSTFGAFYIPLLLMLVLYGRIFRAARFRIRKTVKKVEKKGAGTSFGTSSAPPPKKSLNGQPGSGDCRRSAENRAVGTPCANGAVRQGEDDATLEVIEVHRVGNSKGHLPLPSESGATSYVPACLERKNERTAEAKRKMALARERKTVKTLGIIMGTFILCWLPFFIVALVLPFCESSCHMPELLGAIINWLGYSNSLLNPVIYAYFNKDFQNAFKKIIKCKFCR

[2] = via inhalation; cited from earlier work
[3] = on inhalation in mice; cited from earlier work
adenosine Aza = adenosine Aza (Mus musculus, UniProt Q60613); details: via adenosine Aza; cited from earlier work
Leishmania = details: cited from earlier work
[4] = in vivo; cited from earlier work; remark: listed apart in the source
glutamate = details: in vivo; cited from earlier work
[5] = tested on: Pichia pastoris yeast cells; assay: Yeast cell growth after feeding transgenic Pichia cultures with individual terpenes; details: terpene 100 μg/mL final concentration, cultures harvested 2 days post-feeding
PGE-3 = details: via PGE-3; cited from earlier work
Acetylcholinesterase = Acetylcholinesterase (Homo sapiens, UniProt P22303); details: aiding memory; cited from earlier work
[6] = in humans; cited from earlier work
PGE-1 = details: via PGE-1, comparable phenylbutazone; cited from earlier work
[7] = in vivo; cited from earlier work; remark: listed apart in the source
CB2 = CB2 (Homo sapiens, UniProt P34972); details: cited from earlier work
malaria = details: cited from earlier work
[8] = in vivo; cited from earlier work; remark: listed apart in the source
[9] = antagonized by naloxone; cited from earlier work
PGE-2 = details: via PGE-2; cited from earlier work

Sequence of CB2 (P34972 whole entry): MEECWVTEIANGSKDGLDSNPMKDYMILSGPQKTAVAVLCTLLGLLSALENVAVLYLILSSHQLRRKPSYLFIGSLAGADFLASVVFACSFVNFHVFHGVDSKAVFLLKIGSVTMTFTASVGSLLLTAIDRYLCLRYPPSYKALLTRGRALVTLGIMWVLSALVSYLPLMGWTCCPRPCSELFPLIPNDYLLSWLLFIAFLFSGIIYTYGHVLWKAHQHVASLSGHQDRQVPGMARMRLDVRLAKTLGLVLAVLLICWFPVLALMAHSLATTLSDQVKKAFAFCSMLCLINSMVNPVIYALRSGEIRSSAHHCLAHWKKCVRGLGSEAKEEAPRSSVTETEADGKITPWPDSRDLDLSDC
Sequence of adenosine Aza (Q60613 whole entry): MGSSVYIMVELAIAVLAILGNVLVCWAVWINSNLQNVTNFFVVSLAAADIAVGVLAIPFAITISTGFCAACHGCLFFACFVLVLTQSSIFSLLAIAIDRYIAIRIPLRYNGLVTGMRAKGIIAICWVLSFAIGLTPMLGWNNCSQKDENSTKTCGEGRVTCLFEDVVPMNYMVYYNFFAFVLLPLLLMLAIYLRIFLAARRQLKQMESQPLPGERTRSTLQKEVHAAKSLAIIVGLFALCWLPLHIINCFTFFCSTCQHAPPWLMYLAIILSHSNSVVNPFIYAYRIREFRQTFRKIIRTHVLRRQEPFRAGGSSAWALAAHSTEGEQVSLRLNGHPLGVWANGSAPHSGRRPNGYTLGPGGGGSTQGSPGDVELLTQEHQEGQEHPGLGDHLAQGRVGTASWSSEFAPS
Sequence of Acetylcholinesterase (P22303 32-614): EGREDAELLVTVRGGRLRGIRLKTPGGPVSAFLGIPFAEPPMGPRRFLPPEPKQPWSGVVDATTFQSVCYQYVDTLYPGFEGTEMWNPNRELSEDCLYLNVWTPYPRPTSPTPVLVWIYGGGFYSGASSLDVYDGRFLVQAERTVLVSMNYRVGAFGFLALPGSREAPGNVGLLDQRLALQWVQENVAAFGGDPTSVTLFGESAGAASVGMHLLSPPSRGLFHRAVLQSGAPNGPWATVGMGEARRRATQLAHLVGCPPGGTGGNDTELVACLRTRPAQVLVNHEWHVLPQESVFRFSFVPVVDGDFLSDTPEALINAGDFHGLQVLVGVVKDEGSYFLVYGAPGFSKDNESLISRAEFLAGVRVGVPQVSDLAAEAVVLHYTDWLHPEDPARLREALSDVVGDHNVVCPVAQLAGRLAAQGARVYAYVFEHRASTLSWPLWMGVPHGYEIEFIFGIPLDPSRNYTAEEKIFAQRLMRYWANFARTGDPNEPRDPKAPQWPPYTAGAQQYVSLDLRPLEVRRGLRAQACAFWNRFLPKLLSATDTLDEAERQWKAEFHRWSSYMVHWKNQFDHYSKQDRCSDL

**Q.** Which “Affinity for the cannabinoid receptor (in words)” value (cannabinoid receptor) does the source give for `C=C(C)[C@@H]1CCC(C)=C[C@H]1c1c(O)cc(CCCCC)cc1O` [CBD, cannabidiol] here?
**A.** The value was “do not have significant affinity”.

**Q.** What does the source list for `C=C1CC[C@H]2O[C@]2(C)CC[C@@H]2[C@@H]1CC2(C)C` [Caryophyllene Oxide]?
**A.** Antifungal activity in onychomycosis (onychomycosis): Antifungal in onychomycosis comparable to ciclopiroxolamine and sulcanazole; Effect on platelet aggregation (platelet aggregation): Decreases platelet aggregation

**Q.** With `C=C(C)[C@H]1CC=C(C)CC1` [Limonene] as the compound, how does the “Activity against acne bacteria” value (acne bacteria) read?
**A.** Its value is “Active against acne bacteria (Kim et al., 2008)”.

**Q.** And the Activity against dermatophytes (Dermatophytes)?
**A.** Its Activity against dermatophytes is “Dermatophytes (Sanguinetti et al., 2007;”.

**Q.** What about the “Apoptosis of breast cancer cells” value (breast cancer cells) of the same compound?
**A.** The value was “Apoptosis of breast cancer cells (Vigushin”.

**Q.** And the “Activity in gastro-aesophageal reflux” value [1]?
**A.** The value was “Gastro-aesophageal reflux (Harris, 2010)”.

**Q.** And the Anxiolytic activity (5-HTEA)?
**A.** The Anxiolytic activity was “Anxielytic”.

**Q.** And the AD/immunostimulant activity [2]?
**A.** Its AD/immunostimulant activity is “Potent AD/immunostimulant via inhalation”.

**Q.** For `C=CC(C)(O)CCC=C(C)C` (stereo not drawn) [Linalool], which Sedative activity [3] is on record?
**A.** Its Sedative activity is “Sedative on inhalation in mice”.

**Q.** And the Analgesic activity (adenosine Aza)?
**A.** The Analgesic activity was “Analgesic via adenosine Aza (Peana et al.,”.

**Q.** And the Anti-leishmanial activity (Leishmania)?
**A.** The Anti-leishmanial activity was “Potent anti-leshmarial (do Socorro et al.,”.

**Q.** What about the Anti-anxiety activity [4] of the same compound?
**A.** Its Anti-anxiety activity is “Anti-anxiety”.

**Q.** What about the Anticonvulsant/anti-glutamate activity (glutamate) of the same compound?
**A.** The Anticonvulsant/anti-glutamate activity was “Anticonvulsant/anti-glutamate (Elisabetsky”.

**Q.** Which “Effect on yeast cell growth rates” value [5] does the source give for `CC(C)=CCC[C@](C)(O)[C@@H]1CC=C(C)CC1` [alpha-bisabolol] here?
**A.** The value was “no observed negative effect”.

**Q.** With `CC(C)=CCCC(C)CCO` (stereo not drawn) [citronellol] as the compound, how does the “Effect on yeast cell growth rates” value [5] read?
**A.** The value was “no observed negative effect”.

**Q.** For `CC(C)=CCC/C(C)=C\CO` [nerol], which “Effect on yeast cell growth rates” value [5] is on record?
**A.** Its value is “no observed negative effect”.

**Q.** What does the source list for `CC1=CCC2CC1C2(C)C` (stereo not drawn) [α-Pinene]?
**A.** Anti-inflammatory activity (PGE-3): Anti-inflammatory via PGE-3; Acetylcholinesterase inhibition (Acetylcholinesterase): Acetylcholinesterase inhibitor, aiding memory; Bronchodilatory activity [6]: Bronchodilatory in humans

**Q.** Which results are given for `C=C1CC/C=C(\C)CC[C@@H]2[C@@H]1CC2(C)C` [β-Caryophyllene]?
**A.** A1 (anti-inflammatory) activity (PGE-1): A1 via PGE-1 comparable phenylbutazone; Gastric cytoprotective activity [7]: Gastric cytoprotective; Selective CB2 agonist (concentration given) (CB2): 100 nM; Anti-malarial activity (malaria): Anti-malarial

**Q.** Which “Sedating, muscle relaxant, hypnotic activity” value [8] does the source give for `C=CC(=C)CCC=C(C)C` [β-Myrcene] here?
**A.** Its value is “Sedating, muscle relaxant, hypnotic (da Vale”.

**Q.** What about the Analgesic activity [9] of the same compound?
**A.** The Analgesic activity was “Analgesic, antagonized by naloxone”.

**Q.** What about the Blocking of inflammation (PGE-2) of the same compound?
**A.** The Blocking of inflammation was “Blocks inflammation via PGE-2”.
